Measured values reported in patent US7601850B2, “Phenyl-thiophene type vitamin D receptor modulators” (Eli Lilly and Company, priority 2002, dated 2009).
Read-outs that look alike come from different tables or passages of the source.

Experiments:
rat osteocalcin promoter = test: OCN (osteocalcin) promoter assay in RG-15 (ROS 17/2.8) cells; assay type: cell-based
Method in brief: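 Rat osteoblast-like RG-15 (ROS 17/2.8) cells stably carry the rat osteocalcin promoter fused to luciferase. They were treated with compounds for 48 h in medium with 2% FBS and 0.01% DMSO. EC50 was derived from luciferase activity in cell lysates.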

VDR = biological target: T1, VDR (Homo sapiens, UniProt P11473); test: VDR CTF (Caco-2 cell co-transfection assay); assay type: cell-based; conditions: Caco-2 cells
T1 construct: the receptor expression vector pGa14-VDR-LBD (10 ng); expressed in transfected cells; host or cells: Caco-2 cells
T1 sequence (P11473 127-423 limits assumed): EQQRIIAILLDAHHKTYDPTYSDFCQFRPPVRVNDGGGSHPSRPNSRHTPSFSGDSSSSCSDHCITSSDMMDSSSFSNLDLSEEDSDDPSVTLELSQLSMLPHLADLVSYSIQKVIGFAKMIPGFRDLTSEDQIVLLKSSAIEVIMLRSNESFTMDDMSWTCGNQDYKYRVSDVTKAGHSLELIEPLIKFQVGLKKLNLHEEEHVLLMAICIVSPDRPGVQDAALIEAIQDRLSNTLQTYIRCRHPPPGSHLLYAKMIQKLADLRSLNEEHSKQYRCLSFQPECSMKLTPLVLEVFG
Procedure: 3. The VDR CTF (Caco-2 cells) test is described in the “Assay” section of the Description, infra.
2. The Caco-2 Cell Co-Transfection Assay:
The Caco-2 cell assay is an indicator for the undesirable condition of hypercalcemia. This co-transfection assay is a surrogate assay for in vivo calcemic activity of VDR ligands. […] Preferred assay results are greater than 1000 nM.
(2) Materials and Method for The Caco-2 Cell Assay:
Caco-2 cells, grown in phenol red free, DMEM (Invitrogen, Carlsbad, Calif.) containing 10% charcoal-stripped FCS (Hyclone, Logan, Utah), were transfected with Fugene 6 reagent (Roche Diagnostics, Indianapolis, Ind.). Cells (5000/well) were plated 18 h before transfection in a 96 well plate. The Cells were transfected with Gal-4-responsive reporter pFRLuc (150 ng, Stratagene, La Jolla Calif.) and the receptor expression vector pGa14-VDR-LBD (10 ng), along with Fugene 6 reagent (0.2 µl/well). The DNA-Fugene complex was formed by incubating the mixture for 30 min at room temperature. The cells were transfected in triplicate for 5 h, and treated with various concentrations of VDR ligands (form 0.01 nM to 10,000 nM concentration range) 18 h post-transfection. The luciferase activity was quantified using Steady-Glo reagent kit (Promega, Madison, Wis.) as per manufacturer's specifications.

RXR-VDR heterodimer = biological target: T2, RXR-VDR heterodimer (Homo sapiens, UniProt P11473); test: RXR-VDR heterodimerization assay (SaOS-2 cells); assay type: cell-based
T2 construct: Add the Gal-4-RXR-DEF and VP16-VDR-LBD; expressed in transfected cells; host or cells: SaOS-2 cells
T2 sequence (P11473 127-423 limits assumed): T1 sequence (P11473 127-423 limits assumed)
T2 sequence (P19793 201-462 partner limits assumed): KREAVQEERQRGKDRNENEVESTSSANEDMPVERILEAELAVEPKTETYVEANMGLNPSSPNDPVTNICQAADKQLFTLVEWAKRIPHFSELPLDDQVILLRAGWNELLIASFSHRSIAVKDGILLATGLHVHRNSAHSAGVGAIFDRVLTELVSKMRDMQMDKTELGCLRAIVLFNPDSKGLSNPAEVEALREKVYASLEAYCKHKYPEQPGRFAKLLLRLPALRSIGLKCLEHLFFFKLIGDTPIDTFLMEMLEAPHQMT
Description: 2. The RXR-VDR heterodimerization (SaOS-2 cells) test is described in the “Assay” section of the Description, infra.
1. The RXR-VDR heterodimerAssay:
This assay provides the VDR activity of a test compound.
(1) Materials and Method for RXR-VDR Heterodimerization Assay:
Luciferase Assay Reagent: • Use Steady-Glo Luciferase Reagent from Promega (Cat # E2550) Consists of: • a. E2533 Assay Substrate, lyopholized product and • b. […] DAY 2: Transfection Step 1: DNA and Media • Add plain DMEM media to tubes for mixing the DNA • Add the Reporter gene pFR-LUC • Add the Gal-4-RXR-DEF and VP16-VDR-LBD Step 2: FuGENE and Media • Prepare plain DMEM media in a ubes for mixing FuGENE • Add FuGENE 6 Transfection Reagent • Incubate Step 3: FuGENE, DNA and Media Complex • Add FuGENE Media complex from step 2 to DNA Media complex from step 1 • Incubate Step 4: FuGENE, DNA and Media Complex to-well plate • Add FuGENE-DNA-Media complex from step 3 to each plate • Incubate. […] Day 4: Luciferase Assay • Read the plates after drug treatment • Remove part of media from all the wells and leave remainder • Add Steady-Glo Luciferase Reagent mixture/wells • Incubate • Count each well using a Luminescence counter, Top Count NXT by Packard
Set a delay between plates to reduce the background.

[1] = Mouse hypercalcemia assay (six day, serum ionized calcium); assay type: in vivo

Row | SMILES | EC50 (rat osteocalcin promoter; Rattus norvegicus) | EC50 (VDR) | EC50 (RXR-VDR heterodimer) | EC50 (rat osteocalcin promoter) | Mouse Hypercal [1]
1 | CCCc1cc(C(CC)(CC)c2ccc(C(=O)O)s2)ccc1OCC(O)C(C)(C)C (single isomer, unassigned) [Ex. 95, 3′-[4-(2-hydroxy-3,3-dimethylbutoxy)-3-n-propylphenyl]-3′-[5-carboxy-thiophen-2-yl]pentane] | – | 1180 nM | 421 nM | 21.4 nM | >6000 µg/kg/day
2 | CCC(CC)(c1ccc(OCC(O)C(C)(C)C)c(C)c1)c1ccc(C(=O)OC)s1 (stereo not shown) [Ex. 5] | 146 nM | 1030 nM | – | – | –

Further lines, with some results ahead:

Row | EC50 (rat osteocalcin promoter; Rattus norvegicus) | EC50 (VDR) | EC50 (RXR-VDR heterodimer) | SMILES | EC50 (rat osteocalcin promoter) | Mouse Hypercal [1]
3 | 326 nM | 1060 nM | 323 nM | CCC(CC)(c1ccc(OCC(O)C(C)(C)C)c(C)c1)c1cc(C)c(C(=O)OC)s1 (single isomer, unassigned) [Ex. 6B] | – | –
4 | – | 245 nM | 212 nM | CCC(CC)(c1ccc(OCS(C)(=O)=O)c(C)c1)c1cc(C)c(CCC(O)C(C)(C)C)s1 (single isomer, unassigned) [Ex. 15B] | – | –
5 | – | 901 nM | 431 nM | CCC(CC)(c1ccc(OCC(O)C(C)(C)C)c(C)c1)c1cc(C)c(S(=O)(=O)NCC(=O)OC)s1 (stereo not shown) [Ex. 136] | – | –
